Source: patent publication US8791303B2, “Herbicides” (Syngenta Limited, priority 2009, dated 2014)

Legend:
[1] = tested on: Echinochloa crus-galli (ECHCG); experiment: Example A glasshouse herbicide test, pre-emergence, ECHCG; assay type: in vivo; conditions: Echinochloa crus-galli, pre-emergence, 312 h, Rate 250 g/ha, sprayed after cultivation for one day, evaluated after 13 days, read-out: Pre-Emergence Activity ECHCG (100=total damage to plant; 0=no damage to plant)
Protocol: (§1) Seeds of a variety of test species are sown in standard soil in pots. After cultivation for one day (pre-emergence) or after 8 days cultivation (post-emergence) under controlled conditions in a glasshouse (at 24/16° C., day/night; 14 hours light; 65% humidity), the plants are sprayed with an aqueous spray solution derived from the formulation of the technical active ingredient in acetone/water (50:50) solution containing 0.5% Tween 20 (polyoxyethelyene sorbitan monolaurate, CAS RN 9005-64-5).
(§2) The test plants are then grown in a glasshouse under controlled conditions in a glasshouse (at 24/16° C., day/night; 14 hours light; 65% humidity) and watered twice daily. After 13 days for pre and post-emergence, the test is evaluated (100=total damage to plant; 0=no damage to plant).
(§3) Lolium perenne (LOLPE), Alopecurus myosuroides (ALOMY), Echinochloa crus-galli (ECHCG), Avena fatua (AVEFA)

[2] = tested on: Alopecurus myosuroides (ALOMY); experiment: Example A glasshouse herbicide test, pre-emergence, ALOMY; assay type: in vivo; conditions: Alopecurus myosuroides, pre-emergence, 312 h, Rate 250 g/ha, sprayed after cultivation for one day, evaluated after 13 days, read-out: Pre-Emergence Activity ALOMY (100=total damage to plant; 0=no damage to plant)
Protocol: as §1, §2, §3

Avena fatua (AVEFA) [3] = experiment: Example A glasshouse herbicide test, pre-emergence, AVEFA; assay type: in vivo; conditions: Avena fatua, pre-emergence, 312 h, Rate 250 g/ha, sprayed after cultivation for one day, evaluated after 13 days, read-out: Pre-Emergence Activity AVEFA (100=total damage to plant; 0=no damage to plant)
Protocol: as §1, §2, §3

[4] = tested on: Alopecurus myosuroides (ALOMY); experiment: Example A glasshouse herbicide test, post-emergence, ALOMY; assay type: in vivo; conditions: Alopecurus myosuroides, post-emergence, 312 h, Rate 250 g/ha, sprayed after 8 days cultivation, evaluated after 13 days, read-out: Post-Emergence Activity ALOMY (100=total damage to plant; 0=no damage to plant)
Protocol: as §1, §2, §3

Avena fatua (AVEFA) [5] = experiment: Example A glasshouse herbicide test, post-emergence, AVEFA; assay type: in vivo; conditions: Avena fatua, post-emergence, 312 h, Rate 250 g/ha, sprayed after 8 days cultivation, evaluated after 13 days, read-out: Post-Emergence Activity AVEFA (100=total damage to plant; 0=no damage to plant)
Protocol: as §1, §2, §3

[6] = tested on: Echinochloa crus-galli (ECHCG); experiment: Example A glasshouse herbicide test, post-emergence, ECHCG; assay type: in vivo; conditions: Echinochloa crus-galli, post-emergence, 312 h, Rate 250 g/ha, sprayed after 8 days cultivation, evaluated after 13 days, read-out: Post-Emergence Activity ECHCG (100=total damage to plant; 0=no damage to plant)
Protocol: as §1, §2, §3

Lolium perenne (LOLPE) [7] = experiment: Example A glasshouse herbicide test, post-emergence, LOLPE; assay type: in vivo; conditions: Lolium perenne, post-emergence, 312 h, Rate 250 g/ha, sprayed after 8 days cultivation, evaluated after 13 days, read-out: Post-Emergence Activity LOLPE (100=total damage to plant; 0=no damage to plant)
Protocol: as §1, §2, §3

Lolium perenne (LOLPE) [8] = experiment: Example A glasshouse herbicide test, pre-emergence, LOLPE; assay type: in vivo; conditions: Lolium perenne, pre-emergence, 312 h, Rate 250 g/ha, sprayed after cultivation for one day, evaluated after 13 days, read-out: Pre-Emergence Activity LOLPE (100=total damage to plant; 0=no damage to plant)
Protocol: as §1, §2, §3

[9] = tested on: Winter Wheat variety 'Hereward'; experiment: Example B crop damage test, post-emergence, wheat seed treated with safener cloquintocet mexyl; assay type: in vivo; conditions: Rate 250 g/ha; post-emergence spray 8 days after sowing; seed treated with cloquintocet mexyl 0.5 g/kg dry seed; evaluated after 13 days
Protocol: Seeds of the Winter Wheat variety ‘Hereward’ were seed treated with a wettable powder formulation of the cereal herbicide safener, cloquintocet mexyl, at a rate of 0.5 grams per kilogram of dry seed prior to the initiation of glasshouse testing. One seed was sown per 1.5 inch plastic pot into a sandy loam soil at a depth of 1 cm, 8 days prior to application of the test compounds and was watered and grown under controlled conditions in a glasshouse (at 24/16° C., day/night; 14 hours light; 65% humidity). The plants were sprayed post-emergence with an aqueous spray solution derived from the formulation of the technical active ingredient in acetone/water (50:50) solution containing 0.5% Tween 20 (polyoxyethelyene sorbitan monolaurate, CAS RN 9005-64-5).
(§4) The test plants were then grown in a glasshouse under controlled conditions in a glasshouse (at 24/16° C., day/night; 14 hours light; 65% humidity) and watered twice daily. After 13 days for pre and post-emergence, the test was evaluated (100=total damage to plant; 0=no damage to plant).

[10] = tested on: Winter Wheat variety 'Hereward'; experiment: Example B crop damage test, post-emergence, unsafened wheat; assay type: in vivo; conditions: Rate 250 g/ha; post-emergence spray after 8 days cultivation; no safener; evaluated after 13 days
Protocol: Seeds of the Winter Wheat variety ‘Hereward’ were sown in standard soil in pots. After 8 days cultivation under controlled conditions in a glasshouse (at 24/16° C., day/night; 14 hours light; 65% humidity), the plants were sprayed post-emergence with an aqueous spray solution derived from the formulation of the technical active ingredient in acetone/water (50:50) solution containing 0.5% Tween 20 (polyoxyethelyene sorbitan monolaurate, CAS RN 9005-64-5).
as §4

| melting point | SMILES | pest or weed control at 250 g/ha [1] | pest or weed control at 250 g/ha [2] | pest or weed control at 250 g/ha (Avena fatua (AVEFA) [3]) | pest or weed control at 250 g/ha [4] | pest or weed control at 250 g/ha (Avena fatua (AVEFA) [5]) | pest or weed control at 250 g/ha [6] | pest or weed control at 250 g/ha (Lolium perenne (LOLPE) [7]) | pest or weed control at 250 g/ha (Lolium perenne (LOLPE) [8]) | Winter Wheat (Hereward) + cloquintocet mexyl damage (100=total damage to plant; 0=no damage to plant) [9] | Winter Wheat (Hereward) damage (100=total damage to plant; 0=no damage to plant) [10] |
| --- | --- | --- | --- | --- | --- | --- | --- | --- | --- | --- | --- |
| 183.1 to 183.2 °C | Cc1cc(C)c(C2C(=O)CC(Cc3ccc(F)cc3)C2=O)c(C)c1 (stereo not drawn) [Compound A12] | – | – | – | – | – | – | – | – | – | – |
| 192 to 194.8 °C | Cc1cc(C)c(C2C(=O)CC(Cc3cccc(Oc4ccccc4)c3)C2=O)c(C)c1 (stereo not drawn) [Compound A13] | 20% | 10% | 0% | 30% | 30% | 20% | 20% | 40% | – | – |
| 225 to 232 °C | Cc1cc(C)c(C2C(=O)CC(Cc3ccc(-c4csnn4)cc3)C2=O)c(C)c1 (stereo not drawn) [Compound A16] | 80% | 10% | 30% | 20% | 50% | 50% | 30% | 70% | – | – |
| – | Cc1cc(C)c(C2C(=O)C/C(=C\C3CCCC(C)C3)C2=O)c(C)c1 (stereo not drawn) [Compound A30] | 100% | 80% | 70% | 60% | 70% | 80% | 60% | 100% | 0 | 50 |
| – | Cc1cc(C)c(C2C(=O)C/C(=C\C3CCCC4CCCCC34)C2=O)c(C)c1 (stereo not drawn) [Compound A31] | 90% | 40% | 20% | 20% | 20% | 80% | 70% | 90% | 0 | 20 |
| – | Cc1cc(C)c(C2C(=O)CC(CC3CCCC(C)C3)C2=O)c(C)c1 (stereo not drawn) [Compound A32] | 100% | 70% | 50% | 70% | 90% | 100% | 100% | 90% | 0 | 30 |
| – | Cc1cc(C)c(C2C(=O)CC(CC3CCC(C)CC3)C2=O)c(C)c1 (stereo not drawn) [Compound A33] | 100% | 30% | 50% | 30% | 70% | 60% | 100% | 0% | 0 | 40 |
| – | Cc1cc(C)c(C2C(=O)CC(CC3CC(C)CCC3C(C)C)C2=O)c(C)c1 (stereo not drawn) [Compound A34] | 60% | 10% | 0% | 20% | 10% | 10% | 30% | 0% | 10 | 20 |
| – | Cc1cc(C)c(C2C(=O)CC(CC3CCCCCC3)C2=O)c(C)c1 (stereo not drawn) [Compound A35] | 100% | 50% | 50% | 50% | 20% | 80% | 80% | 30% | 0 | 20 |
| – | Cc1cc(C)c(C2C(=O)CC(CC3CCCC4CCCCC43)C2=O)c(C)c1 (stereo not drawn) [Compound A36] | 70% | 70% | 50% | 40% | 90% | 70% | 70% | 10% | 0 | 20 |
| – | COC1CCC(CC2CC(=O)C(c3c(C)cc(C)cc3C)C2=O)CC1 (stereo not drawn) [Compound A38, 4-(4-Methoxy-cyclohexylmethyl)-2-(2,4,6-trimethyl-phenyl)-cyclopentane-1,3-dione] | 100% | 90% | 60% | 100% | 100% | 100% | 100% | 100% | 50 | 70 |
| – | Cc1cc(C)c(C2=C(OC(=O)C(C)(C)C)C/C(=C\C3CCCCC3)C2=O)c(C)c1 [Compound B1] | 100% | 70% | 20% | 50% | 10% | 30% | 70% | 80% | 0 | 10 |
| – | Cc1cc(C)c(C2=C(OC(=O)C(C)(C)C)CC(CC3CCCCC3)C2=O)c(C)c1 (stereo not drawn) [Compound B2] | 100% | 30% | 0% | 80% | 80% | 60% | 90% | 100% | 0 | 70 |
| – | Cc1cc(C)c(C2=C(OC(=O)C(C)(C)C)C(CC3CCC(=O)CC3)CC2=O)c(C)c1 (stereo not drawn) [Compound B3] | 50% | 70% | 50% | 70% | 90% | 90% | 90% | 90% | 30 | 40 |
